What was measured:
Smad2 = Smad2 phosphorylation western blot; format: cell-based, mouse; settings: serum free medium, TGFβ 1 ng/ml 90 minutes, inhibitors 90 minutes or 8 hours
Text: TGFβ is known as a powerful inducer of Foxp3 expression in conventional CD4 T cells in vitro and we therefore asked whether TGFβ mediates the induction of Foxp3 by TCR signal deprivation of newly activated T cells and PI3-K/mTOR inhibitors. Since cell culture medium supplemented with FCS contains TGFβ, we carried out the experiments described in this section in serum free lymphocyte culture medium (AIM-V, Invitrogen). […] The binding of TGFβ binding to ALK5 and TGFβ receptor II (TGFβRII) results in the phosphorylation of receptor-associated Smad2 and -3, which subsequently associate with co-Smads, translocate to the nucleus and act as transcriptional regulators. The phosphorylation of Smad proteins therefore provides a sensitive indicator of TGFβ signaling. Naive LN T cells were activated for 18 hours in serum free medium and then exposed to TGFβ (1 ng/ml) […], TCR signal deprivation, or TCR signal deprivation plus rapamycin and Ly294002. […] The blot was subsequently probed with anti Smad2/3 as a loading control.

S6 ribosomal protein = S6 ribosomal protein phosphorylation (pS6) by intracellular staining/immunoblot; format: cell-based, mouse; settings: 18 h activated cells; rapamycin 25 nM, Ly294002 10 g/ml as printed; within one hour
Description: Mouse strains, cell sorting and culture Animal work was carried out according the Animals (Scientific Procedures) Act, UK. Lymph node (LN) cells were stained, analysed and sorted by flow cytometry as described (Cobb et al 2005 J. Exp. Med. 201: 1367-1373). Intracellular staining for Foxp3 protein was done as advised by the manufacturers (eBiosciences.com). The phosphorylation syatus of S6 ribosomal protein was determined using anti pS6 Ser235/236 (Cellsignaling cat.no. 2211, http://www.cellsignal.com) using the eBioscience Foxp3 staining kit and anti rabbit IgG-FITC or IgG-Cy5 (Jackson Immunoresearch). […] CD4 T cell CFSE profiles were recorded between 48 and 72 hours later.
To monitor the activity of the PI3K/mTOR axis in response to TCR signaling, TCR signal withdrawal and treatment with rapamycin and Ly294002, we analysed the level of phosphorylated S6 ribosomal protein (pS6), the target of p70 S6 kinase, which is directly regulated by mTOR. […]
Mice, Cell Sorting and Culture. […] Lymph node (LN) cells or thymocytes from wild type were stained, analysed and sorted by flow cytometry as described (Thompson et al., 2007 Immunity VoI 26 pp 335-344) from wild type (C57BL/6, BALB/c or C57BL/6×129) mice or from Rag1 deficient H2^b AND TCR transgenic mice. […] CD4 T cell CFSE profiles were recorded between 48 and 72 hours later.

TGFβ
phosphorylation of Smad2 (pSmad2 S465/467) (Smad2): readily detectable | phosphorylation of Smad2 (pSmad2 S465/467) (Smad2; listed as TGF): strong phosphorylation of Smad2 | S6 phosphorylation (pS6) (S6 ribosomal protein): reduced pS6
